Source: PMC9118553, “In Vivo Bioconcentration of 10 Anionic Surfactants in Rainbow Trout Explained by In Vitro Data on Partitioning and S9 Clearance” (Environmental Science & Technology, 2022)
Where two headings read alike, the source gives them in different places.

Experiments:
[1] = In vivo bioconcentration experiment with a mixture of anionic surfactants, flow-through aquaria, 10 °C, pH 7.8; design: species or system rainbow trout; settings: rainbow trout, whole fish homogenate, other: waterborne exposure in flow-through aquaria; for k el: read-out: Elimination rate constant kT (converted)
Method in brief: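 Juvenile rainbow trout exposed to a 10-surfactant mixture for 4 days, then 7-day depuration, in flow-through aquaria at 10 °C, pH 7.8. Whole-fish homogenates and water analysed by LC-MS/MS against BEHP internal standard. kU, kT and BCF (=kU/kT) estimated by joint Bayesian model including water-concentration uncertainty.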

[2] = tested on: rainbow trout; settings: rainbow trout carcass; cited from earlier work
[3] = design: method as in REACH dossier; settings: method as noted in the cell (shake flask, solubility ratio, HPLC, BCFBAF, pH); ref REACH dossier; cited from earlier work
[4] = ref REACH dossier; cited from earlier work

**Q.** Which k el ([1]; 26 μg L^–1, pH 7.8, determined using nominal concentrations in water) does the source give for `CCCCC(CC)COC(=O)CC(C(=O)OCC(CC)CCCC)S(=O)(=O)O` (centres unmarked) [DOSS, bis(2-ethylhexyl)sulfosuccinate] here?
**A.** The k el was 1.56e-05 s⁻¹.

**Q.** And the concentration at 97 h ([1]; 26 μg L^–1, pH 7.8, elimination phase, 97 h, individual fish)?
**A.** The concentration at 97 h was 57 ng/g.

**Q.** What about the concentration at 98 h ([1]; 26 μg L^–1, pH 7.8, elimination phase, 98 h, individual fish) of the same molecule?
**A.** The concentration at 98 h was 47 ng/g.

**Q.** And the concentration at 103 h ([1]; 26 μg L^–1, pH 7.8, elimination phase, 103 h, individual fish)?
**A.** The concentration at 103 h was 35 ng/g.

**Q.** What about the concentration at 128 h ([1]; 26 μg L^–1, pH 7.8, elimination phase, 128 h, individual fish) of the same molecule?
**A.** Its concentration at 128 h is 13.9 ng/g.

**Q.** What about the concentration at 2 h ([1]; 26 μg L^–1, pH 7.8, exposure phase, 2 h, individual fish) of the same molecule?
**A.** Its concentration at 2 h is 8.5 ng/g.

**Q.** And the concentration at 3 h ([1]; 26 μg L^–1, pH 7.8, exposure phase, 3 h, individual fish)?
**A.** Its concentration at 3 h is 14.9 ng/g.

**Q.** And the concentration at 6 h ([1]; 26 μg L^–1, pH 7.8, exposure phase, 6 h, individual fish)?
**A.** Its concentration at 6 h is 36 ng/g.

**Q.** And the concentration at 24 h ([1]; 26 μg L^–1, pH 7.8, exposure phase, 24 h, individual fish)?
**A.** Its concentration at 24 h is 66 ng/g.

**Q.** What about the concentration at 48 h ([1]; 26 μg L^–1, pH 7.8, exposure phase, 48 h, individual fish) of the same molecule?
**A.** Its concentration at 48 h is 48 ng/g.

**Q.** And the concentration at 72 h ([1]; 26 μg L^–1, pH 7.8, exposure phase, 72 h, individual fish)?
**A.** Its concentration at 72 h is 50 ng/g.

**Q.** What about the concentration at 96 h ([1]; 26 μg L^–1, pH 7.8, exposure phase, 96 h, individual fish) of the same molecule?
**A.** The concentration at 96 h was 84 ng/g.

**Q.** What about the k el ([1]; 26 μg L^–1, pH 7.8, from measured concentrations in water, Bayesian estimate, 95% credible interval in brackets) of the same molecule?
**A.** Its k el is 1.75e-05 s⁻¹.

**Q.** What about the k el ([1]; pH 7.8, measured concentrations in water, simpler estimation method (Text S3), 95% confidence intervals in brackets) of the same molecule?
**A.** Its k el is 1.78e-05 s⁻¹.

**Q.** What about the BCF [2] of the same molecule?
**A.** The BCF was 3.78 L kg^–1.

**Q.** What about the LogKow [3] of the same molecule?
**A.** Its LogKow is 2.

**Q.** What about the “Degradation information ~28d-sludge test (% degradable)” value [4] of the same molecule?
**A.** Its value is 91.2-100%.
